Laboratory results as given in patent US20120088667A1, “SAFENING AGENT” (priority 2009, published 2012).
Read-outs that look alike come from different tables or passages of the source.

Key:
NAVY BEAN cv Mogex = assay: Root nodulation and safening, navy bean, compost of normal pH (Example 7.4); details: compost of normal pH (6.5)
Text: (§1) The safener/safening system and the fertiliser were applied to the crops either simultaneously or sequentially.
(§2) Co=100% Cobalt Sulphate (20 g per litre and per hectare). FF1=20 g per litre Cobalt Sulphate (as per Co above) plus “Miracle-Gro” at xl recommended rate (applied at 15 g per 2.5 sq metres). Miracle-Gro contains: 24% N, 4% P, 13% K, plus 0.02% B, 0.03% Cu, 0.19% Fe, 0.05% Mn, 0.001% Mo and 0.03% Zn. FF2=20 g per litre Cobalt Sulphate plus Miracle-Gro at ×2 recommended rate. SAF: at least one from class (f) each at <3 g/l, plus at least one from class (c).
NAVY BEAN cv Mogex. Scored/Counted+28 Days after Spraying. Dates as per Example 7.3 Above, but sown in compost of normal pH (6.5). Each treatment represents the mean value from 12 plants, within four replicates. No inoculum applied.

PEA cv Ragtime [1] = assay: Root nodulation and safening, pea, compost of normal pH (Example 7.6); details: compost of normal pH (6.5)
Text: as §1, §2
PEA—TRIAL 7.6—cv Ragtime. Dates as per Example 7.5 above, but sown in compost of normal pH (6.5). […] No inoculum was applied.

[2] = system: Oilseed rape cv Excalibur; details: for Greenness (0-9) (9 = Deeper Green) + 14 Days / Vigour (0-9) (9 = Most Vigour) + 14 days / Greenness (0-9) + 28 Days / Vigour (0-9) + 28 Days: score 0-9
Text: Safening systems were applied to crops of oilseed rape and winter treated with various herbicides (Bifenox (with insecticide), Carbetamide, Propaquizafop, Chlorotoluron, Isoproturon, Flumioxazin). The safening system and the herbicide were applied to the crops either simultaneously or sequentially.
Oilseed rape: cv Excalibur, sown 26 Apr. 2008, at two seeds per 9 cm pot, sown in normal pH multi-purpose compost. Date of spraying: 6 June; Dates of measurement/scoring: 13 June, 20 June, 5 July. Winter wheat: cv Alchemy, sown 23 Apr. 2008, at seven seeds per 9 cm pot, sown in normal pH multi-purpose compost. Date of spraying: 24 May; Dates of measurement/scoring: 31 May, 7 June, 21 June. SAF: at least one from class (f) each at <3 g/l, plus at least one from class (c).
Statistical Layout: Randomised Complete Block trials, under glasshouse conditions, United Kingdom.

Winter Wheat cv Limerick = assay: Safening of fertilisers, pot trial: phytotoxicity and vigour scores, winter wheat; format: in vivo; details: for Phytotoxicity (0-9) (0 = Dead) + 14 Days / Phytotoxicity (0-9) (0 = Dead) + 28 Days: score 0-9, 0 = dead; for Vigour (0-9) (9 = Most Vigour) + 14 days / Vigour (0-9) + 28 Days: score 0-9
Text: (§3) The safening system and the fertilizer were applied either simultaneously or sequentially.
(§4) Sprayed: mid-tillering phase (GS23). Winter Wheat: cv Limerick, sown 4 Jun. […] Sprayed: mid-tillering phase (GS23). Lettuce: cv Set, sown 10 Jul. 2008, at one seed per pot, in John Innes No 1 compost. Date of spraying: 30 July; Dates of measurement: 7 August, 14 August, 28 August. Sprayed: 2 true leaf stage.

[3] = system: Maize cv Sundance (i.e. not Roundup Ready); details: no glyphosate
PEA cv Ragtime [4] = assay: Root nodulation, rooting and safening, pea, compost of low pH (Examples 7.5 and 7.7)
Text: as §1, §2
PEA—TRIAL 5—cv Ragtime. Scored/Counted+28 Days after Spraying. Sown in Compost of Low pH (5.0-5.5) on 28 Apr. 2008. Spray Date (VC)=26 May, V1 Date=14 June. Scored/Measured on 9 July. […] No inoculum applied.
Sowing details etc as per Example 7.5.

Winter Barley cv Saffron = assay: Safening of fertilisers, pot trial: phytotoxicity and vigour scores, winter barley; format: in vivo; details: for Phytotoxicity (0-9) (0 = Dead) + 14 Days / Phytotoxicity (0-9) (0 = Dead) + 28 Days: score 0-9, 0 = dead; for Vigour (0-9) (9 = Most Vigour) + 14 days / Vigour (0-9) + 28 Days: score 0-9
Text: as §3, §4

[5] = herbicide Bifenox (with insecticide), Table 3.1
[6] = herbicides Carbetamide and Propaquizafop, Table 3.2
[7] = +28 days, herbicide Bifenox (with insecticide), Table 3.1
[8] = +28 days, herbicides Carbetamide and Propaquizafop, Table 3.2
[9] = Table 1.4, winter wheat, phosphite fertiliser (KP)
[10] = Table 1.5, winter wheat, KP/ATS
[11] = Table 1.6, winter wheat, general fertilisers
[12] = compost of low pH (5.0-5.5), V1, score 0-9
[13] = low pH compost, application at V1, 0-9 scale
[14] = Table 1.1, winter barley, phosphite fertiliser (KP)
[15] = Table 1.2, winter barley, KP/ATS
[16] = Table 1.3, winter barley, general fertilisers

Structure (SMILES): Nc1ccccc1C(=O)O [AN, anthranilic acid]
- Nodules Per Plant (V1) (NAVY BEAN cv Mogex; V1, +28 days after spraying, no inoculum): 32.2
- Nodulation Score (0-9) (V1) (NAVY BEAN cv Mogex; V1, score 0-9): 5.0
- Phyto-Toxicity Score (0-9) (V1) (NAVY BEAN cv Mogex; V1, score 0-9): 7.0
- Vigour Score (0-9) (V1) (NAVY BEAN cv Mogex; V1, score 0-9): 7.2
- Nodules Per Plant (VC) (NAVY BEAN cv Mogex; VC): 33.2
- Nod Score (0-9) (VC) (NAVY BEAN cv Mogex; VC, score 0-9): 5.1
- Nodules Per Plant (V1) (PEA cv Ragtime [1]; V1, no inoculum): 17.2
- Nodulation Score (0-9) (V1) (PEA cv Ragtime [1]; V1, score 0-9): 5.2
- Phyto-Toxicity Score (0-9) (V1) (PEA cv Ragtime [1]; V1, score 0-9): 7.0
- Vigour Score (0-9) (V1) (PEA cv Ragtime [1]; V1, score 0-9): 6.9
- Nodules Per Plant (VC) (PEA cv Ragtime [1]; VC): 17.1
- Nod Score (0-9) (VC) (PEA cv Ragtime [1]; VC, score 0-9): 5.2
- Phytotoxicity (0-9) (0 = Dead) + 14 Days ([2]; score 0-9, 0 = dead, herbicide Bifenox (with insecticide), Table 3.1): 9.0
- Phytotoxicity (0-9) (0 = Dead) + 14 Days ([2]; score 0-9, 0 = dead, herbicides Carbetamide and Propaquizafop, Table 3.2): 9.0
- Phytotoxicity (0-9) (0 = Dead) + 28 Days ([2]; score 0-9, 0 = dead, +28 days, herbicide Bifenox (with insecticide), Table 3.1): 8.0
- Phytotoxicity (0-9) + 28 Days ([2]; score 0-9, 0 = dead, +28 days, herbicides Carbetamide and Propaquizafop, Table 3.2): 8.0
- Greenness (0-9) (9 = Deeper Green) + 14 Days [2, 5]: 8.0
- Vigour (0-9) (9 = Most Vigour) + 14 days [2, 5]: 9.0
- Greenness (0-9) (9 = Deeper Green) + 14 Days [2, 6]: 8.0
- Vigour (0-9) (9 = Most Vigour) + 14 days [2, 6]: 9.0
- Greenness (0-9) + 28 Days [2, 7]: 8.0
- Vigour (0-9) + 28 Days [2, 7]: 8.0
- Greenness (0-9) + 28 Days [2, 8]: 8.0
- Vigour (0-9) + 28 Days [2, 8]: 8.0
- Phytotoxicity (0-9) (0 = Dead) + 14 Days (Winter Wheat cv Limerick; [9]): 7.5
- Phytotoxicity (0-9) (0 = Dead) + 28 Days (Winter Wheat cv Limerick; [9]): 8.0
- Vigour (0-9) (9 = Most Vigour) + 14 days (Winter Wheat cv Limerick; [9]): 8.0
- Vigour (0-9) + 28 Days (Winter Wheat cv Limerick; [9]): 8.5
- Phytotoxicity (0-9) (0 = Dead) + 28 Days (Winter Wheat cv Limerick; [10]): 8.0
- Vigour (0-9) (9 = Most Vigour) + 14 days (Winter Wheat cv Limerick; [10]): 8.0
- Vigour (0-9) + 28 Days (Winter Wheat cv Limerick; [10]): 8.5
- Phytotoxicity (0-9) (0 = Dead) + 14 Days (Winter Wheat cv Limerick; Table 1.5, winter wheat, thiosulphate and phosphite fertilisers (KP/ATS)): 7.5
- Phytotoxicity (0-9) (0 = Dead) + 14 Days (Winter Wheat cv Limerick; Table 1.6, winter wheat, general NPK fertilisers (GEN + KP, GENEX)): 7.5
- Phytotoxicity (0-9) (0 = Dead) + 28 Days (Winter Wheat cv Limerick; [11]): 8.0
- Vigour (0-9) (9 = Most Vigour) + 14 days (Winter Wheat cv Limerick; [11]): 8.0
- Vigour (0-9) + 28 Days (Winter Wheat cv Limerick; [11]): 8.5
- Phytotoxicity (0-9) (0 = Dead) + 14 Days ([3]; scale 0-9, 0=dead, 9=least phytotoxicity, 14 days after spraying): 8.0
- Phytotoxicity (0-9) (0 = Dead) + 28 Days ([3]; scale 0-9, 0=dead, 9=least phytotoxicity, 28 days): 8.0
- Phytotoxicity (0-9) (0 = Dead) + 41 days ([3]; scale 0-9, 0=dead, 9=least phytotoxicity, 41 days): 8.0
- Vigour (0-9) + 14 Days ([3]; scale 0-9, 0=least vigour, 9=most vigour, 14 days): 8.0
- Vigour (0-9) + 28 Days ([3]; scale 0-9, 0=least vigour, 9=most vigour, 28 days): 8.0
- Vigour (0-9) + 41 Days ([3]; scale 0-9, 0=least vigour, 9=most vigour, 41 days): 8.0
- Nodules Per Plant (V1) (PEA cv Ragtime [4]; compost of low pH (5.0-5.5), V1, +28 days after spraying, no inoculum): 16.8
- Nodulation Score (0-9) (V1) (PEA cv Ragtime [4]; [12]): 5.0
- Phyto-Toxicity Score (0-9) (V1) (PEA cv Ragtime [4]; [12]): 5.2
- Vigour Score (0-9) (V1) (PEA cv Ragtime [4]; [12]): 5.5
- Nodules Per Plant (VC) (PEA cv Ragtime [4]; compost of low pH (5.0-5.5), VC): 17.3
- Nod Score (0-9) (VC) (PEA cv Ragtime [4]; compost of low pH (5.0-5.5), VC, score 0-9): 5.2
- Nodules Per Plant (V1) (PEA cv Ragtime [4]; low pH compost, application at V1 (data from Example 7.5)): 16.8
- Nodulation Score (0-9) (V1) (PEA cv Ragtime [4]; [13]): 5.0
- Phyto-Toxicity Score (0-9) (V1) (PEA cv Ragtime [4]; [13]): 5.2
- Rooting Score (0-9) (V1) (PEA cv Ragtime [4]; [13]): 4.2
- Phytotoxicity (0-9) (0 = Dead) + 14 Days (Winter Barley cv Saffron; [14]): 7.5
- Phytotoxicity (0-9) (0 = Dead) + 28 Days (Winter Barley cv Saffron; [14]): 8.0
- Vigour (0-9) (9 = Most Vigour) + 14 days (Winter Barley cv Saffron; [14]): 7.0
- Vigour (0-9) + 28 Days (Winter Barley cv Saffron; [14]): 8.0
- Phytotoxicity (0-9) (0 = Dead) + 14 Days (Winter Barley cv Saffron; Table 1.2, winter barley, KP + ammonium thiosulphate (KP/ATS)): 7.5
- Phytotoxicity (0-9) (0 = Dead) + 28 Days (Winter Barley cv Saffron; [15]): 8.0
- Vigour (0-9) (9 = Most Vigour) + 14 days (Winter Barley cv Saffron; [15]): 7.0
- Vigour (0-9) + 28 Days (Winter Barley cv Saffron; [15]): 8.0
- Phytotoxicity (0-9) (0 = Dead) + 14 Days (Winter Barley cv Saffron; Table 1.3, winter barley, general NPK fertilisers (GEN + KP, GENEX)): 7.5
- Phytotoxicity (0-9) (0 = Dead) + 28 Days (Winter Barley cv Saffron; [16]): 8.0
- Vigour (0-9) (9 = Most Vigour) + 14 days (Winter Barley cv Saffron; [16]): 7.0
- Vigour (0-9) + 28 Days (Winter Barley cv Saffron; [16]): 8.0
